# Measured values taken from patent publication US12637415B2, “Lyophilized composition comprising (s)-isopropyl 2-((s)-2-acetamido-3-(1H-indol-3-yl)propanamido)-6-diazo-5-oxohexanoate for intravenous administration and the use thereof” (DRACEN PHARMACEUTICALS, INC., priority 2019, dated 2026).
# Assays:
# Format in all cases: physicochemical
# [1] = Study Number 1: in-use stability diluted in normal saline in PVC containers (HPLC purity and concentration, 24 hour); conditions: for Time stable at room temperature: 0.012-0.3 mg/mL diluted in normal saline in PVC containers
# Protocol: The purity and concentration of Compound 1 as measured by HPLC were determined during a 24 hour test period while the drug product was held in its diluted state in normal saline in a polyvinyl chloride (PVC) clinical containers over a range of concentrations in 500 mL bags. The parameters of the study were: • Compound 1 dose: 6 mg and 150 mg in 500 mL • Concentration range: 0.012-0.3 mg/mL Compound 1 • Container size: 500 mL • Diluent: 0.9% normal saline, USP • Stability time points: 0, 4, 8, 24 hours • Storage condition: room temperature (15-25° C.) • Container composition: polyvinyl chloride • Light conditions: ambient light vs amber IV bag covers to limit UV exposure • Reconstitution: 80% (v/v) ethanol for reconstitution of the lyophilate, followed by dilution into normal saline.
# [2] = Compounding (dissolution) of pre-lyophilization solutions comprising Compound 1
# Protocol: Third, Compound 1 was dissolved in the solution at 30° C. After dissolution, the solution was cooled to room temperature (20-22° C.). Experiments were conducted to study the compounding and holding of pre-lyophilization solutions comprising Compound 1.
# [3] = Holding of compounded sterile filtered pre-lyophilization solutions (precipitation); conditions: for Precipitation in held pre-lyophilization solution: 24 h; for Precipitation post filtration: vials stored at 17° C., 20° C., 22° C., or 25° C. for 24 h
# Protocol: Experiments were conducted to study the compounding and holding of pre-lyophilization solutions comprising Compound 1.
# Vials of the compounded sterile filtered pre-lyophilization solutions were held at 17° C., 20° C., 22° C., and 25° C.
# [4] = Study Number 2: in-use stability in PVC and polyolefin containers, 4 hour hold plus 1 hour infusion (HPLC)
# Protocol: (§1) The purity and concentration of Compound 1 as measured by HPLC were determined during a 5 hour test period while the drug product was held in polyvinyl chloride (PVC) and non-PVC, non-DEHP (polyolefin) clinical containers over a range of concentrations in 500 mL containers. Admixed containers were delivered with an […] infusion set by holding the infusion bag with diluted test article for 4 hours prior to a 1 hour infusion to assess in use stability over a total of 5 hours to mimic clinical practice. The parameters of the study were: • Compound 1 dose: 6 mg and 150 mg in 500 mL • Concentration range: 0.012-0.3 mg/mL Compound 1 • Container size: 500 mL • Diluent: 0.9% normal saline, USP • Stability time points: 0 hours, 4 hours (pre-infusion), 5 hours (post-1 hour infusion) • Storage condition: room temperature (15-25° C.) • Container composition: polyvinyl chloride and non-PVC, non-DEHP (polyolefin) • Light conditions: ambient light vs amber IV bag covers to limit UV exposure • Reconstitution: 80% (v/v) ethanol for reconstitution of the lyophilate, followed by dilution into normal saline.
# [5] = Study Number 3: in-use stability in polyolefin containers after 50% ethanol reconstitution, 4 hour hold plus 1 hour infusion (HPLC)
# Protocol: as §1, with “a” for “polyvinyl chloride (PVC) and non-PVC,”, “120” for “150”, “0.012-0.24” for “0.012-0.3”, “composition:” for “composition: polyvinyl chloride and non-PVC,”, “conditions:” for “conditions: ambient light vs”, “50%” for “80%”
smiles,measurement,setting,value
"CC(=O)N[C@@H](Cc1c[nH]c2ccccc12)C(=O)N[C@@H](CCC(=O)C=[N+]=[N-])C(=O)OC(C)C [Compound 1, (S)-isopropyl 2-((S)-2-acetamido-3-(1H-indol-3-yl)propanamido)-6-diazo-5-oxohexanoate]",Appearance of diluted samples,"[1]; 0.012-0.3 mg/mL in normal saline, PVC, room temperature, through 24 hours",remained clear
same,Time stable at room temperature,[1]; amber covered shroud protected from light,up to 24 hours
same,Impurity testing (HPLC),"[1]; ambient light vs amber cover, 0-24 hours, PVC container",greater impurities under ambient light with an increase in impurities observed over the course of the experiment
same,Time stable at room temperature,[1]; ambient light,up to 8 hours
same,Dissolution time,"[2]; Exp 2: excipients and Compound 1 15 mg/mL at 25° C., single vessel",>6.5 h (estimated at
same,Dissolution time (estimated),"[2]; Exp 2: excipients and Compound 1 15 mg/mL at 25° C., single vessel, estimated",~9.5 h
same,Dissolution of Compound 1 in ethanol and t-butanol (organic dissolution),"[2]; Exp 3: 15 mg/mL, two vessels (separate aqueous and organic), 25° C. stepped up to 35° C.",remains as solid even at
same,Dissolution time,"[2]; Exp 3: 15 mg/mL, two vessels, after mixing aqueous and organic portions, held at the temperature of the organic phase",1.25 h
same,Dissolution time,"[2]; Exp 4: excipients and Compound 1 15 mg/mL at 30° C., single vessel",Dissolution time: 5 h
same,Dissolution time,"[2]; Exp 5: excipients and Compound 1 12.5 mg/mL at 30° C., single vessel",3.66 h
same,Dissolution time,"[2]; Exp 6: excipients and Compound 1 10 mg/mL at 30° C., single vessel",1.75 h
same,Precipitation in held pre-lyophilization solution,"[3]; 17° C., 10 mg/mL",remain free of precipitation
same,Precipitation in held pre-lyophilization solution,"[3]; 17° C., 12.5 mg/mL",remain free of precipitation
same,Time to precipitation of pre-lyophilization solution,"[3]; 17° C., 15 mg/mL",occurs within 1 h at 15 mg/mL.
same,Precipitation post filtration (observed or not),"[3]; Exp 4: 15 mg/mL, sterile filtered, vial held at 17° C., at 1 h",observed in vial held
same,Precipitation post filtration,[3]; Exp 5: 12.5 mg/mL,No precipitation
same,Precipitation post filtration,[3]; Exp 6: 10 mg/mL,No precipitation
same,Appearance of diluted samples,"[4]; 0.012-0.3 mg/mL in normal saline, PVC and polyolefin, room temperature, through 5 hours",remained clear
same,Impurity testing (HPLC),"[4]; ambient light vs amber cover, 4 hours and 1 hour post infusion compared to baseline",greater impurities under ambient light with an increase in impurities observed over the course of the experiment
same,Time stable at room temperature,"[4]; followed by a 1 hour infusion, amber shroud, polyolefin containers, low-sorb tubing, 0.012-0.3 mg/mL in normal saline",up to 4 hours
same,Appearance of diluted samples,"[5]; 0.012-0.24 mg/mL in normal saline, polyolefin, room temperature, through 5 hours, 50% ethanol reconstitution",remained clear
same,Impurity testing (HPLC),"[5]; all time points (0, 4, 5 hours), polyolefin, amber cover",no impurities at any time point
same,Time stable at room temperature,"[5]; followed by a 1 hour infusion, amber shroud, polyolefin containers, PVC or low-sorb tubing, 0.012-0.24 mg/mL in normal saline",up to 4 hours
